Data set [1] relates to Klebsiella pneumoniae. In kind it is cell-based.
Data set [2] relates to Acinetobacter baumannii. In kind it is cell-based.
The test system of data set [3] is Staphylococcus aureus. In words: microbe, parasite or virus in culture. It is filed as cell-based.
Data set [4] concerns Escherichia coli. In kind it is cell-based.
In data set [5] the test system is Pseudomonas aeruginosa. It is filed as cell-based.
In data set [6] the test system is human red blood cells. The settings on record: red cells of human.

In brackets after ≈: the same amount, converted by molar mass. Like-named read-outs stand apart in the source and are kept apart here. Where a SMILES comes first, the peptide text is derived from it. Bridges are numbered along the chain shown (N, C = ends). [ ]: non-standard residue; d: D form. NMeR = CN[C@@H](CCCNC(=N)N)C(=O)O

From PMC12520178, “Turn-engineering tunes the conformational rigidity of β-hairpin AMPs in achieving membrane selectivity and killing drug-resistant ESKAPE pathogens” (Chemical Science, 2025) come the findings set out here.

Broadly, the MIC90 is the lowest concentration that inhibits either 90% of growth or 90% of the strains tested, depending on the study. With `CC(C)[C@@H]1NC(=O)[C@@H](NC(=O)[C@H](Cc2c[nH]c3ccccc23)NC(=O)[C@@H](N)CCCNC(=N)N)CSSC[C@@H](C(=O)N[C@@H](Cc2c[nH]c3ccccc23)C(=O)O)NC(=O)[C@H](CCCNC(=N)N)NC(=O)[C@H](CCCNC(=N)N)NC(=O)[C@H](Cc2ccc(O)cc2)NC(=O)[C@H](CCCNC(=N)N)NC(=O)[C@H](C(C)C)NC(=O)[C@H](CCCNC(=N)N)N(C)C(=O)[C@@H](C)NC(=O)[C@H](C(C)C)NC(=O)[C@H](CCCNC(=N)N)NC(=O)[C@H](C)NC(=O)[C@H](Cc2ccc(O)cc2)NC1=O` [1a] (H-RWCVYARV[dA][NMeR]VRYRRCW-OH; disulfide 3-16), in data set [1], the “MIC (μM) kp” value came out at 0.8 µM (≈ 1.85 µg/mL). Also, the “MIC (μM) ab” value in data set [2] is 0.4 µM (≈ 0.925 µg/mL). Further, in data set [3], the “MIC (μM) sa” value was determined as 0.8 µM (≈ 1.85 µg/mL). Also, in data set [4], the “MIC90” value turned out to be 0.4 µM (≈ 0.925 µg/mL) and the “MIC (μM) ec” value came to 0.4 µM (≈ 0.925 µg/mL). Also, the “MIC (μM) pa” value in data set [5] came out at 0.8 µM (≈ 1.85 µg/mL).
As to `CC(C)[C@@H]1NC(=O)[C@@H](NC(=O)[C@H](Cc2c[nH]c3ccccc23)NC(=O)[C@@H](N)CCCNC(=N)N)CSSC[C@@H](C(=O)N[C@@H](Cc2c[nH]c3ccccc23)C(=O)O)NC(=O)[C@H](CCCNC(=N)N)NC(=O)[C@H](CCCNC(=N)N)NC(=O)[C@H](Cc2ccc(O)cc2)NC(=O)[C@H](CCCNC(=N)N)NC(=O)[C@H](C(C)C)NC(=O)[C@H](CCCNC(=N)N)N(C)C(=O)[C@@H](C(C)C)NC(=O)[C@H](C(C)C)NC(=O)[C@H](CCCNC(=N)N)NC(=O)[C@H](C)NC(=O)[C@H](Cc2ccc(O)cc2)NC1=O` [1b] (H-RWCVYARV[dV][NMeR]VRYRRCW-OH; disulfide 3-16), the “MIC (μM) kp” value in data set [1] amounted to 0.4 µM (≈ 0.936 µg/mL). In data set [2], the “MIC (μM) ab” value came out at 0.8 µM (≈ 1.87 µg/mL). Further, the “MIC (μM) sa” value in data set [3] amounted to 0.4 µM (≈ 0.936 µg/mL). Moreover, in data set [4], the “MIC90” value worked out at 0.2 µM (≈ 0.468 µg/mL) and the “MIC (μM) ec” value is 0.2 µM (≈ 0.468 µg/mL). Also, in data set [5], the “MIC (μM) pa” value was found to be 0.8 µM (≈ 1.87 µg/mL).
`CC(C)[C@H](NC(=O)CNC(=O)[C@H](CCCNC(=N)N)NC(=O)[C@@H](NC(=O)[C@H](CCCNC(=N)N)NC(=O)[C@H](C)NC(=O)[C@H](Cc1ccc(O)cc1)NC(=O)[C@@H](NC(=O)[C@@H](NC(=O)[C@H](Cc1c[nH]c2ccccc12)NC(=O)[C@@H](N)CCCNC(=N)N)[C@@H](C)O)C(C)C)C(C)C)C(=O)N[C@@H](CCCNC(=N)N)C(=O)N[C@@H](Cc1ccc(O)cc1)C(=O)N[C@@H](CCCNC(=N)N)C(=O)N[C@@H](CCCNC(=N)N)C(=O)N[C@H](C(=O)N[C@@H](Cc1c[nH]c2ccccc12)C(=O)O)[C@@H](C)O` [1c] (H-RWTVYARVRGVRYRRTW-OH): the “MIC (μM) kp” value in data set [1] is 1.6 µM (≈ 3.65 µg/mL). The “MIC (μM) ab” value in data set [2] came to 3.12 µM (≈ 7.12 µg/mL). For the same molecule, the “MIC (μM) sa” value in data set [3] was found to be 2.4 µM (≈ 5.48 µg/mL). Further, in data set [4], the “MIC90” value came to 2.4 µM (≈ 5.48 µg/mL) and the “MIC (μM) ec” value was 2.4 µM (≈ 5.48 µg/mL). For the same molecule, the “MIC (μM) pa” value in data set [5] was 12.5 µM (≈ 28.5 µg/mL).
`CC(C)[C@H](NC(=O)[C@H](CCCNC(=N)N)NC(=O)[C@H](C)NC(=O)[C@H](Cc1ccc(O)cc1)NC(=O)[C@@H](NC(=O)[C@@H](NC(=O)[C@H](Cc1c[nH]c2ccccc12)NC(=O)[C@@H](N)CCCNC(=N)N)[C@@H](C)O)C(C)C)C(=O)N[C@H](C)C(=O)N(C)[C@@H](CCCNC(=N)N)C(=O)N[C@H](C(=O)N[C@@H](CCCNC(=N)N)C(=O)N[C@@H](Cc1ccc(O)cc1)C(=O)N[C@@H](CCCNC(=N)N)C(=O)N[C@@H](CCCNC(=N)N)C(=O)N[C@H](C(=O)N[C@@H](Cc1c[nH]c2ccccc12)C(=O)O)[C@@H](C)O)C(C)C` [1d] (H-RWTVYARV[dA][NMeR]VRYRRTW-OH): the “MIC (μM) kp” value in data set [1] stood at 0.4 µM (≈ 0.924 µg/mL). Moreover, the “MIC (μM) ab” value in data set [2] was 1.2 µM (≈ 2.77 µg/mL). Besides, in data set [3], the “MIC (μM) sa” value stood at 0.6 µM (≈ 1.39 µg/mL). Also, the “MHC10 (μM), minimum hemolytic concentration” value (“MHC10 (μM)” for short) in data set [6] was determined as 100 µM. Besides, in data set [4], the “MIC90” value was 0.4 µM (≈ 0.924 µg/mL) and the “MIC (μM) ec” value was found to be 0.4 µM (≈ 0.924 µg/mL). Besides, the “MIC (μM) pa” value in data set [5] is 2.4 µM (≈ 5.54 µg/mL).
In the case of `CC(C)[C@H](NC(=O)[C@H](CCCNC(=N)N)NC(=O)[C@H](C)NC(=O)[C@H](Cc1ccc(O)cc1)NC(=O)[C@@H](NC(=O)[C@@H](NC(=O)[C@H](Cc1c[nH]c2ccccc12)NC(=O)[C@@H](N)CCCNC(=N)N)[C@@H](C)O)C(C)C)C(=O)N[C@@H](C(=O)N(C)[C@@H](CCCNC(=N)N)C(=O)N[C@H](C(=O)N[C@@H](CCCNC(=N)N)C(=O)N[C@@H](Cc1ccc(O)cc1)C(=O)N[C@@H](CCCNC(=N)N)C(=O)N[C@@H](CCCNC(=N)N)C(=O)N[C@H](C(=O)N[C@@H](Cc1c[nH]c2ccccc12)C(=O)O)[C@@H](C)O)C(C)C)C(C)C` [1e] (H-RWTVYARV[dV][NMeR]VRYRRTW-OH), the “MIC (μM) kp” value in data set [1] was found to be 1.6 µM (≈ 3.74 µg/mL). Further, in data set [2], the “MIC (μM) ab” value worked out at 0.4 µM (≈ 0.935 µg/mL). The “MIC (μM) sa” value in data set [3] was found to be 2.6 µM (≈ 6.08 µg/mL). Further, in data set [4], the “MIC90” value came out at 0.6 µM (≈ 1.4 µg/mL) and the “MIC (μM) ec” value turned out to be 0.6 µM (≈ 1.4 µg/mL). Further, the “MIC (μM) pa” value in data set [5] was determined as 0.8 µM (≈ 1.87 µg/mL).
For `CC(C)C[C@H](NC(=O)[C@H](CCCNC(=N)N)NC(=O)CNC(=O)CNC(=O)[C@@H](N)CCCNC(=N)N)C(=O)N[C@H]1CSSC[C@@H](C(=O)N[C@H](C(=O)NCC(=O)N[C@@H](CCCNC(=N)N)C(N)=O)C(C)C)NC(=O)[C@H](C(C)C)NC(=O)[C@@H]2CSSC[C@H](NC(=O)[C@H](Cc3ccc(O)cc3)NC1=O)C(=O)N[C@@H](CCCNC(=N)N)C(=O)N[C@H](C)C(=O)N(C)[C@@H](CCCNC(=N)N)C(=O)N[C@@H](Cc1ccccc1)C(=O)N2` [2a] (H-RGGRLCYCR[dA][NMeR]FCVCVGR-NH2; disulfide 6-15, 8-13), the “MHC10 (μM)” value in data set [6] was 3.12 µM. Also, the “MIC90” value in data set [4] was 0.5 µM (≈ 1.04 µg/mL).
With `CC(C)C[C@H](NC(=O)[C@H](CCCNC(=N)N)NC(=O)CNC(=O)CNC(=O)[C@@H](N)CCCNC(=N)N)C(=O)N[C@H]1CSSC[C@@H](C(=O)N[C@H](C(=O)NCC(=O)N[C@@H](CCCNC(=N)N)C(N)=O)C(C)C)NC(=O)[C@H](C(C)C)NC(=O)[C@@H]2CSSC[C@H](NC(=O)[C@H](Cc3ccc(O)cc3)NC1=O)C(=O)N[C@@H](CCCNC(=N)N)C(=O)N[C@H](C(C)C)C(=O)N(C)[C@@H](CCCNC(=N)N)C(=O)N[C@@H](Cc1ccccc1)C(=O)N2` [2b] (H-RGGRLCYCR[dV][NMeR]FCVCVGR-NH2; disulfide 6-15, 8-13), in data set [6], the “MHC10 (μM)” value was determined as 3.12 µM. In addition, in data set [4], the “MIC90” value stood at 0.4 µM (≈ 0.845 µg/mL).
Consider `CC(C)C[C@H](NC(=O)[C@H](CCCNC(=N)N)NC(=O)CNC(=O)CNC(=O)[C@@H](N)CCCNC(=N)N)C(=O)N[C@H](C(=O)N[C@@H](Cc1ccc(O)cc1)C(=O)N[C@H](C(=O)N[C@@H](CCCNC(=N)N)C(=O)N[C@@H](C(=O)N(C)[C@@H](CCCNC(=N)N)C(=O)N[C@@H](Cc1ccccc1)C(=O)N[C@H](C(=O)N[C@H](C(=O)N[C@H](C(=O)N[C@H](C(=O)NCC(=O)N[C@@H](CCCNC(=N)N)C(N)=O)C(C)C)[C@@H](C)O)C(C)C)[C@@H](C)O)C(C)C)[C@@H](C)O)[C@@H](C)O` [2e] (H-RGGRLTYTR[dV][NMeR]FTVTVGR-NH2), for which the “MHC10 (μM)” value in data set [6] turned out to be 50 µM. Further, in data set [4], the “MIC90” value is 0.3 µM (≈ 0.633 µg/mL).
In the case of `CC(C)[C@H](NC(=O)[C@H](CCCNC(=N)N)NC(=O)[C@H](Cc1ccccc1)NC(=O)[C@@H](NC(=O)[C@H](Cc1c[nH]c2ccccc12)NC(=O)[C@H](CCCNC(=N)N)NC(=O)[C@@H](N)CCCNC(=N)N)[C@@H](C)O)C(=O)N[C@H](C(=O)N[C@@H](Cc1ccc(O)cc1)C(=O)N[C@@H](C(=O)N(C)[C@@H](CCCNC(=N)N)C(=O)N[C@@H](Cc1ccccc1)C(=O)N[C@H](C(=O)N[C@@H](Cc1ccc(O)cc1)C(=O)N[C@@H](CCCNC(=N)N)C(=O)N[C@@H](CCCCN)C(=O)N[C@H](C(=O)N[C@@H](CCCNC(=N)N)C(N)=O)[C@@H](C)O)[C@@H](C)O)C(C)C)[C@@H](C)O` [3e] (H-RRWTFRVTY[dV][NMeR]FTYRKTR-NH2), the “MHC10 (μM)” value in data set [6] amounted to 50 µM. In addition, in data set [4], the “MIC90” value amounted to 1.1 µM (≈ 2.76 µg/mL).
The corresponding values for `CC[C@H](C)[C@H](NC(=O)[C@H](CCCNC(=N)N)N(C)C(=O)[C@H](NC(=O)[C@H](Cc1ccc(O)cc1)NC(=O)[C@@H](NC(=O)[C@@H](NC(=O)[C@H](CCCNC(=N)N)NC(=O)[C@H](Cc1ccccc1)NC(=O)[C@@H](NC(=O)[C@H](Cc1c[nH]c2ccccc12)NC(=O)[C@@H](N)CCCCN)[C@@H](C)O)C(C)C)[C@@H](C)O)C(C)C)C(=O)N[C@H](C(=O)N[C@@H](Cc1ccc(O)cc1)C(=O)N[C@@H](CCCNC(=N)N)C(=O)N[C@@H](CCCNC(=N)N)C(=O)N[C@H](C(=O)N[C@@H](CCCNC(=N)N)C(N)=O)[C@@H](C)O)[C@@H](C)O` [4e] (H-KWTFRVTY[dV][NMeR]ITYRRTR-NH2) are 50 µM and 0.2 µM (≈ 0.463 µg/mL).
Take `CN[C@H](CC(C)C)C(=O)N[C@H]1C(=O)N[C@@H](CC(N)=O)C(=O)N[C@H]2C(=O)N[C@H]3C(=O)N[C@H](C(=O)N[C@H](C(=O)O)c4cc(O)cc(O)c4-c4cc3ccc4O)[C@H](O)c3ccc(c(Cl)c3)Oc3cc2cc(c3O[C@@H]2O[C@H](CO)[C@@H](O)[C@H](O)[C@H]2O[C@H]2C[C@](C)(N)[C@H](O)[C@H](C)O2)Oc2ccc(cc2Cl)[C@H]1O` [Vancomycin, reference compound]: the MIC in data set [3] (Staphylococcus aureus, read-out: MIC (μM) sa) was 0.6 µM (≈ 0.87 µg/mL).
As for Polymyxin B [reference compound], in data set [1] (Klebsiella pneumoniae, non-resistant, microbroth dilution, n = 5), the “MIC (μM) kp” value turned out to be 3.0 µM. Moreover, the “MIC (μM) ab” value in data set [2] (Acinetobacter baumannii, non-resistant, microbroth dilution, n = 5) was found to be 0.8 µM. Besides, the “MIC (μM) pa” value in data set [5] (Pseudomonas aeruginosa, non-resistant, microbroth dilution, n = 5) was determined as 0.8 µM.
